Experimental findings from ChEMBL document CHEMBL1828590 (J Med Chem, 2011) are described below.

The subject of data set [1] is Mus musculus. As to the kind of experiment: Toxicity in nude BALB/c mouse xenografted with human HCT116 cells assessed as mouse survival at 50 mg/kg, po QD for 21 days measured on day 22. To be noted: in vivo, 504 h. Also noted: dose 50 mg/kg, route oral. It counts as organism-based, HCT-116. (In general: A xenograft is tissue or cells of one species grown in another, often human tumour cells in immunodeficient mice.)

In data set [2] the test system is Mus musculus. Nature of the data set: Toxicity in nude BALB/c mouse xenografted with human HCT116 cells assessed as body weight loss at 50 mg/kg, po QD for 21 days measured on day 12. It is filed as organism-based, HCT-116. The arrangement: dose 50 mg/kg, route oral. Conditions: in vivo, 504 h.
In another data set the test system is COLO 205. As to the kind of experiment: Antiproliferative activity against human COLO205 cells after 96 hrs by celltiter 96 assay. It is filed as functional, cell-based. To be noted: COLO 205, 96 h.
Data set [3] concerns HCT-116. As to the kind of experiment: Antiproliferative activity against human HCT116 cells after 96 hrs by celltiter 96 assay. Conditions: HCT-116, 96 h. It is filed as functional, cell-based.
Data set [4] deals with HCT-116. As to the kind of experiment: Antitumor activity against human HCT116 cells xenografted in nude BALB/c mouse assessed as tumor growth inhibition at 50 mg/kg, po qd for 21 days measured on day 15. Conditions: read-out: TGI. It counts as functional.
Another data set deals with A2780. As to the kind of experiment: Antiproliferative activity against human A2780 cells after 96 hrs by celltiter 96 assay. It is filed as functional, cell-based. Conditions: A2780, 96 h.
The subject of another data set is PC-3. As to the kind of experiment: Antiproliferative activity against human PC3 cells after 96 hrs by celltiter 96 assay. It is filed as functional, cell-based. Conditions: PC-3, 96 h.
Data set [5] relates to HCT-116. As to the kind of experiment: Antitumor activity against human HCT116 cells xenografted in nude BALB/c mouse assessed as tumor growth inhibition at 50 mg/kg, po qd for 21 days measured on day 18. It counts as functional. To be noted: read-out: TGI.
Data set [6] in a line: Oral bioavailability in nude BALB/c mouse at 50 mg/kg. To be noted: in vivo. It is filed as ADME, organism-based.

Broadly, the IC50 is the midpoint of a concentration-inhibition curve. For orientation: bioavailability means the share of a dose that reaches the circulation, judged against a reference dose that is usually intravenous. A high value points to much systemic uptake. Turning to `Cc1[nH]c2ccccc2c1CCNCc1ccc(/C=C/C(=O)NO)cc1` [PANOBINOSTAT], the Activity entry was “Non-toxic” with Mus musculus [1] and 17.3% in the data set with Mus musculus [2]. Also, the half-maximal inhibitory concentration (IC50) in the data set with COLO 205 turned out to be 0.018 µM; in the data set on HCT-116 [3] it was 0.048 µM; in the data set on A2780, 0.035 µM; in the data set with PC-3 it was 0.024 µM. The inhibition in vivo at 50 mg/kg in the data set on HCT-116 [4] amounted to 41%; in the data set with HCT-116 [5] it was 61%. In data set [6], the bioavailability amounted to 4.6%.
